In patent US10005846B2, “Anti-transglutaminase 2 antibodies” (MEDICAL RESEARCH COUNCIL TECHNOLOGY, priority 2012, dated 2018):

Assays:
WI-38 cells = test: Scratch wound assay in WI-38 cells; assay type: cell-based, human; details: serum free media; Cytochalasin D 0.1 μM, R281 100 μM, Z DON 10 μM and 100 μM, Cub7402 5 μg/ml
Method: WI-38 cells (normal human lung fibroblasts ATCC cat#CCL-75) were plated in a 96 well Image Lock plate (Essen cat#4379) at 2×10^4/well in αMEM media (Life Technologies cat#32561) with 10% FBS and grown O/N to >97% confluence. Cells were washed 2× with αMEM media without serum and a scratch wound was generated using an Essen Wound Maker and the manufacturers protocol. The media was removed and replaced with 95 μl/well serum free media. Controls and test antibodies were added to the wells. The plate was placed in an Essen Incucyte and the closure of the wound was analysed using the scratch wound protocol.
Cytochalasin D was used as an assay control at 0.1 μM. R281, a small molecule non-specific transglutaminase inhibitor, was tested at 100 μM. Z DON, a peptide non reversible transglutaminase inhibitor was tested at 10 μM and 100 μM. The commercially available TG2 antibody Cub7402 (ABcam cat#ab2386) was tested at 5 μg/ml. Antibodies of the invention were tested on at least three occasions at various concentrations as indicated. In all experiments controls were Cytochalasin D at 0.1 uM and ZDON at two concentrations to show a dose dependant effect.

[1] = target: T1, extracellular TG2 in human HK-2 cells (Homo sapiens, UniProt P21980); test: Extracellular TG activity in HK-2 cells, biotin cadaverine incorporation into fibronectin (Example 1); assay type: cell-based; details: 400 μM of the site-specific pan TG inhibitor 1,3-Dimethyl-2-[(2-oxo-propyl)thio]imidazolium chloride
T1 construct: endogenous in cells; host or cells: HK-2 (kidney proximal tubular epithelium)
T1 sequence (P21980 1-687): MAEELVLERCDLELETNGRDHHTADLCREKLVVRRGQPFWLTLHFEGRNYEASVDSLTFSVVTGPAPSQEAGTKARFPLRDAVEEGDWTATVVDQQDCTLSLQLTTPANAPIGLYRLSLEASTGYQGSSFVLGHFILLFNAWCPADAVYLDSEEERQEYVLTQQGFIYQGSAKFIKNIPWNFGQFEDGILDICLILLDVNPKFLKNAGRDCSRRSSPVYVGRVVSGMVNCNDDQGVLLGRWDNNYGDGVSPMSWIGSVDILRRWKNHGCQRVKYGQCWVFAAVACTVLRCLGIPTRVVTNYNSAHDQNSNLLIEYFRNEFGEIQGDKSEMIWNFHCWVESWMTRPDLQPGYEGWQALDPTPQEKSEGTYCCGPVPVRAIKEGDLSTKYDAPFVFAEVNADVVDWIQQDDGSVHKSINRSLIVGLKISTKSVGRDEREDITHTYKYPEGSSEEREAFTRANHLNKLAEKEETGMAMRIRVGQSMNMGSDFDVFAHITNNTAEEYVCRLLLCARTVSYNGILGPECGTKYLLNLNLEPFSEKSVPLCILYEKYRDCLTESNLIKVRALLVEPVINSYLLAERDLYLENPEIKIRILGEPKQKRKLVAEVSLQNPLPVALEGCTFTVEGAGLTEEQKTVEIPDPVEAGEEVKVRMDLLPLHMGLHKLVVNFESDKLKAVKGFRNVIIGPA
Method: HK2 cells were plated onto fibronectin and incubated for 2 hours in the presence of 0.1M biotin cadaverine with either 4 ng/μl of human anti-TG2 antibody (AB1) (part A), 4 ng/μl of human anti-TG2 antibody (DC1) (part B) or 400 μM of the site-specific pan TG inhibitor 1,3-Dimethyl-2-[(2-oxo-propyl)thio]imidazolium chloride. […] Changes in optical density were measured at 450 nm in a 96 well plate reader. Data represents mean OD at 450 nm corrected to 1 mg of cell protein. n=6 wells per experimental group.
Extracellular TG activity was measured by modified cell ELISA. HK-2 epithelial cells were harvested using 0.1M EDTA or 0.25% trypsin/EDTA and plated at a density of 8×10^4 cells/well in serum free medium onto a 96 well plate that had been coated overnight with 100 μl/well of fibronectin (5 μg/ml in 50 mM Tris-HCl pH 7.4) (Sigma, Poole UK). Cells were allowed to attach for 2.5 h at 37° C. in the presence of the 0.1 mM biotin cadaverine [N-(5 amino pentyl biotinamide) trifluoroacetic acid] (Molecular Probes, Eugene Oreg., USA). Plates were washed twice with 3 mM EDTA/PBS and cells removed with 0.1% (w/v) deoxycholate in 5 mM EDTA/PBS. The supernatant was collected and used for protein determination. […] The reaction was stopped with 50 μl 2.5 M H2SO4 and the absorbance read at 450 nm.

| inhibition of extracellular TG activity relative to AB1 and DC1 [1] | SMILES | effect on wound closure (WI-38 cells) |
| --- | --- | --- |
|  | C=C1[C@@H](C)[C@H]2[C@H](Cc3ccccc3)NC(=O)[C@]23[C@H](OC(C)=O)/C=C/[C@@](C)(O)C(=O)[C@@H](C)C/C=C/[C@H]3[C@@H]1O [Cytochalasin D, reference compound] | inhibited wound closure |
| comparable | CC(=O)CSc1n(C)cc[n+]1C.[Cl-] [1,3-Dimethyl-2-[(2-oxo-propyl)thio]imidazolium chloride, reference compound] |  |
